# Literature values, collected in patent US20040157932A1, “Supplements and foods comprising oleylethanolamide” (Natural ASA,, priority 2002, published 2004).
# Columns and labels:
# [1] = test system: cannabinoid receptors
# [2] = rats
# [3] = test system: FAAH
# [4] = test system: CD-4 and CD-8 lymphocyte subpopulations; white blood cells
# [5] = test system: human melanoma, colorectal and breast cancer cells; conditions: in vitro
# [6] = test system: rat mammary tumorigenesis; conditions: administration of CLA
# [7] = diet with 0.5 percent CLA
# [8] = CLA in animal feed, birds and mammals
compound,measurement,setting,value
"CCCCCCCC/C=C\CCCCCCCC(=O)NCCO [OEA, oleylethanolamide]",activation of cannabinoid receptors,[1],does not activate
same,desire for food,[2]; OEA in diet,reduced desire for food
same,weight gain,[2]; OEA in diet,decreased weight gain
same,effect on the nervous system,[2]; in contrast to currently available weight loss drugs,not effecting the nervous system
CCCCCCC(C)OC(=O)CC(=O)CBr (stereo not shown) [2-octyl y-gamma.-bromoacetoacetate],FAAH inhibition,[3],potent
conjugated linoleic acid [CLA],preserving white blood cells,[4]; CLA in concentrations of about 0.1 to 1.0 percent,effective adjuvant
same,CD-4 and CD-8 lymphocyte subpopulations,"[4]; oral or parenteral administration, free acid or salt form",elevation
same,"cytotoxicity against human melanoma, colorectal and breast cancer cells",[5],strong cytotoxic agent
same,rat mammary tumorigenesis,[6],inhibits
same,body weight,[7],no increase
same,fat content,"[7]; pigs, mice, humans",significant drop
same,protein mass,"[7]; pigs, mice, humans",concomitant increase
same,efficiency of feed conversion,[8],increased the efficiency of feed conversion
